Experiments:
[1] = tested on: A549 lung adenocarcinoma cells; assay: A549 cell proliferation / growth inhibition; assay type: cell-based, human; details: for Selected from primary screen for growth inhibition of A549 cells at 50 μM: 50 μM compound, 1 mM glucose; for Selected for having an IC50 ratio (10 mM glucose: 1 mM glucose) of A549 growth higher than WBC-A: IC50 on 10 mM vs 1 mM glucose, compared with WBC-A
Procedure: The analog library (n=203) was screened for inhibition of growth of A549 cells on RPMI medium supplemented with 1 mM glucose. DMSO (green bar) and WBC-A (orange bar) served as negative and positive control, respectively. In addition, the reference glucose transport inhibitors STF-31, Fasentin, BAY-876, WZB-117 and Cytochalasin B were included and indicated in red. Compounds were added at 50 μM concentration. Number of cells was determined by counting nuclei stained by Hoechst after three days of growth.
For both adherent A549 and MCF10Δ H-RAS^V12 cell lines, growth curves were established using the IncuCyte® ZOOM technology. By collecting phase contrast images, the IncuCyte® software provides a calculated confluency percentage from which growth curves can be deducted.
Cells were seeded at a density of 1000-1500 cells/well in a Nunc-Edge™ 96-well plate (Thermo Fisher Scientific) and growth was typically measured over 3 to 5 days. For the measurement of apoptosis induction using the MCF10Δ H-RAS^V12 cell line, the IncuCyte® Caspase-3/7 green dye was added to the medium in the recommended concentration at the beginning of the growth curve experiment. Apoptosis was detected by taking fluorescent images by excitation at 488 nm followed by IncuCyte® software analysis. Cell growth of the KMS-12-PE multiple myeloma cell line, which grows in suspension, was measured by manual cell counting. Cells were initially seeded at a density of 10^4 cells/well and incubated for 4 days after which the cell number was counted. For all cell lines, the same medium used for pregrowth was also used for the growth curve experiment, albeit with different glucose concentrations depending on the experimental design. With compound administration, the final concentration of DMSO never exceeded 0.1%. Typically, at least four technical repeats were included per condition.

tps1Δ cells = assay: Growth rescue of tps1Δ strain on glucose (growth curves, 2% galactose medium); assay type: cell-based, S. cerevisiae; details: 100 μM compound, 2.5 mM glucose
Procedure: Growth curves were made by measuring OD595 in a 96-well plate using the Multiskan™ FC Microplate Photometer (Thermo Fisher Scientific). Typically, for tps1Δ rescue experiments (FIG. 2b-e; FIG. 4a), cells were (pre)grown in Complete Synthetic medium containing 2% galactose.
Compounds were always added 10 min prior to glucose addition to ensure maximal interaction between the cells and compounds. Cells originating from the preculture were harvested, washed in medium without sugar, after which they were resuspended to an OD of 0.1 in 200 μL of the appropriate medium. At least three technical replicates were included per condition. OD595 was measured at 30° C. every 30 min with a 10-min shaking interval.

SMILES | Selected from primary screen for growth inhibition of A549 cells at 50 μM [1] | Selected for having an IC50 ratio (10 mM glucose: 1 mM glucose) of A549 growth higher than WBC-A [1] | Rescue of the tps1Δ strain on 2.5 mM glucose at 100 μM (tps1Δ cells)
Cc1nc(Sc2nnc(C(F)(F)F)n2C)c2c(-c3cccs3)csc2n1 [54C] | Yes | Lower IC50 ratio | Yes
Cc1nc(Sc2nnnn2C2CC2)c2c(-c3cccs3)csc2n1 [44C] | Yes | Lower IC50 ratio | No
COc1ccccc1NC(=O)CSc1ncnc2scc(-c3ccccc3)c12 [11B] | No |  | No
Cc1nc(Sc2nnc3n2CCCCC3)c2c(-c3cccs3)csc2n1 [A] | Yes |  | Yes
CCN(CC)Cc1nc(Sc2nnc(C3CC3)n2CCC(N)=O)c2c(C)c(C)sc2n1 [66A] | No |  | No
Cc1nc(SCC(=O)N(C)CCC#N)c2c(-c3cccs3)csc2n1 [7B] | No |  | Yes
Cc1cc(NC(=O)CSc2nnc(C)c3cnn(-c4ccccc4)c23)no1 [72C] | No |  | No
Cc1nc(SCC(=O)Nc2cc(C)on2)c2c(-c3cccs3)csc2n1 [10C] | Yes | Lower IC50 ratio | Yes
Cc1nc(Sc2nnc3n2CCC(CN=[N+]=[N-])CC3)c2c(-c3cccs3)csc2n1 (stereo not drawn) [87C] | Yes | Lower IC50 ratio | Yes
CCOC(=O)c1sc2nc(C)nc(SCC(N)=O)c2c1C [59C] | No |  | No
Cc1nc(Sc2nnnn2C)c2c(-c3cccs3)csc2n1 [39A] | Yes | Lower IC50 ratio | No
c1cnc(Sc2nc(CN3CCOCC3)nc3scc(-c4cccs4)c23)nc1 [1C] | Yes | Lower IC50 ratio | No
c1ccc(Cn2c(CN3CCCC3)nnc2Sc2ncnc3scc(-c4ccccc4)c23)cc1 [27A] | Yes | Lower IC50 ratio | No
Cc1nc(SCCO)c2c3c(sc2n1)CCCC3 [22C] | No |  | No
CCN(C(=O)CSc1nc(C)nc2scc(-c3cccs3)c12)C1CCS(=O)(=O)C1 (stereo not drawn) [2C] | Yes | Lower IC50 ratio | Yes
Cc1nc(Sc2nnc(NC3CC3)s2)c2c(-c3cccs3)csc2n1 [66C] | No |  | No
Cc1nnc(SCC(=O)NCc2ccco2)c2c1cnn2-c1ccccc1 [71C] | No |  | No
Cc1nc(SCCC#N)c2c(-c3cccs3)csc2n1 [15A] | No |  | No

SMILES | Selected from primary screen for growth inhibition of A549 cells at 50 μM [1] | Selected for having an IC50 ratio (10 mM glucose: 1 mM glucose) of A549 growth higher than WBC-A [1] | Rescue of the tps1Δ strain on 2.5 mM glucose at 100 μM (tps1Δ cells)
Cc1nc(Sc2nnc(-c3ccoc3C)n2C)c2c(-c3cccs3)csc2n1 [63C] | No |  | No
OCCSc1ncnc2scc(-c3ccc(F)cc3)c12 [56C] | No |  | No
Cc1nc(NC2CCN(CC(N)=O)CC2)c2c(-c3cccs3)csc2n1 [48B] | Yes | Lower IC50 ratio | No
Cc1nc(SCC(=O)N(C)Cc2ccco2)c2c(-c3cccs3)csc2n1 [27B] | No |  | No
CCc1nc(Sc2nnc(CO)n2C)c2ccsc2n1 [41A] | Yes | Lower IC50 ratio | No
Cc1nc(Sc2nnc(-c3cccnc3)n2C2CC2)c2c(-c3cccs3)csc2n1 [24A] | Yes | Lower IC50 ratio | No
Cn1nnnc1Sc1nc(CN2CCOCC2)nc2scc(-c3cccs3)c12 [54A] | Yes | Lower IC50 ratio | No
Cc1ccc(-c2csc3ncnc(Sc4nnnn4C)c23)cc1 [57A] | Yes | Lower IC50 ratio | No
Cc1ccc(-c2csc3ncnc(Sc4nc(C5CCCCC5)n(-c5ccccc5)n4)c23)cc1 [1A] | No |  | No
Cc1ccc(-c2csc3nc(CSc4nnc5n4CCCCC5)[nH]c(=O)c23)s1 [4A] | No |  | No
Cc1nc(SCC(=O)N2CC(C)OC(C)C2)c2c(-c3cccs3)csc2n1 (stereo not drawn) [5B] | No |  | Yes
CCN(CC)CCSc1ncnc2scc(-c3ccccc3)c12 [36C] | Yes | Lower IC50 ratio | No
CCCN(CC(=O)N(C)C)c1nc(C)nc2scc(-c3cccs3)c12 [46B] | Yes | Lower IC50 ratio | No
Cc1sc2nc(-c3cccnc3)nc(SCCO)c2c1-c1ccccc1 [13C] | Yes | Lower IC50 ratio | No
COCCNC(=O)CN(C)c1nc(C)nc2scc(-c3cccs3)c12 [23B] | Yes | Lower IC50 ratio | No
Cc1nc(NC2CCC(O)CC2)c2c(-c3cccs3)csc2n1 (stereo not drawn) [42B] | No |  | No
Cc1sc2ncnc(Sc3nnc(Cc4cccs4)n3C)c2c1C [12A] | No |  | No

Reference: patent US20240252508A1, “Novel glucose uptake inhibitors for use in the treatment of cancer” (NOVELYEAST BV, priority 2021, published 2024)
